From patent publication US20250041308A1, “BRUTON'S TYROSINE KINASE INHIBITORS AS ANTIVIRAL AGENTS” (University of Florida Research Foundation, Incorporated, priority 2022, published 2025)

Tests used:
Format in all cases: cell-based, Epstein-Barr virus (EBV)
[1] = test system: EBV lytic cycle (ZEBRA) in EBV-positive Mutu-I Burkitt lymphoma cells; experiment: Flow cytometry for ZEBRA in Mutu-I cells, lytic cycle induced with sodium butyrate; conditions: sodium butyrate 24 hours, 2 h pretreatment
Source text: (§1) Cells were harvested, fixed and permeabilized, stained with a monoclonal antibody to the viral latent-to-lytic switch protein ZEBRA, and examined by flow cytometry. Cells were stained in parallel with an isotype-matched control antibody for placement of gates. […] Decreasing EBV switching to lytic phase decreases the risk of the B cells developing lymphoma.

[2] = test system: EBV lytic cycle proteins ZEBRA and EA-D in EBV-positive HH514-16 Burkitt lymphoma cell line; experiment: Immunoblotting for ZEBRA and EA-D in HH514-16 cells induced with sodium butyrate
Source text: Cells were harvested and subjected to immunoblotting with monoclonal antibodies to ZEBRA and EA-D (Early antigen-diffuse). EA-D is useful in the diagnosis of acute Epstein-Barr virus (EBV) infection and EBV reactivation and functions downstream of ZEBRA.
Cells were harvested and subjected to immunoblotting with monoclonal antibodies to ZEBRA or the control protein β-actin to analyze protein expression.

[3] = test system: ZEBRA and cleaved caspase 1 in EBV-positive Mutu-I Burkitt lymphoma cells; experiment: Immunoblotting for ZEBRA, procaspase 1 and cleaved caspase 1 in Mutu-I cells induced with sodium butyrate; conditions: 1 μM for 2 hours before sodium butyrate for 24 hours, FIG. 7
Source text: Cells were harvested and subjected to immunoblotting with monoclonal antibodies to ZEBRA, procaspase 1, cleaved caspase 1, or the control protein β-actin to analyze protein expression. […] Cleavage of caspase is a marker for programmed cell death.

[4] = test system: EBV lytic cycle (ZEBRA) in EBV-positive HH514-16 Burkitt lymphoma cell line; experiment: Flow cytometry for ZEBRA in HH514-16 cells, lytic cycle induced with sodium butyrate; conditions: for Percent positive cells ZEBRA: 2 h pretreatment
Source text: as §1, with “ZEBRA (Z EBV Replication Activator),” for “ZEBRA,”, “cytometry. ZEBRA is an early lytic protein of EBV, encoded by BZLFI, that drives the lytic cascade.” for “cytometry.”

[5] = test system: EBV lytic cycle (ZEBRA) in EBV-positive HH514-16 Burkitt lymphoma cell line; experiment: Flow cytometry for ZEBRA in HH514-16 cells, lytic cycle induced with AZA; conditions: for Percent positive cells ZEBRA: 2 h pretreatment
Source text: Cells were harvested, fixed and permeabilized, stained with a monoclonal antibody to the viral latent-to-lytic switch protein ZEBRA (Z EBV Replication Activator), and examined by flow cytometry. Cells were stained in parallel with an isotype-matched control antibody for placement of gates.

[6] = test system: EBV lytic cycle (ZEBRA) in EBV-positive Akata Burkitt lymphoma cell line; experiment: Flow cytometry for ZEBRA in Akata cells, lytic cycle induced with rabbit-anti human IgG; conditions: for Percent positive cells ZEBRA: Rabbit anti-human IgG induction 24 h, 2 h pretreatment
Source text: Akata cells are an EBV-producer line established from a patient with Burkitt's lymphoma. Akata cells produce transforming virus upon treatment of cells with anti-immunoglobulin antibodies. Cells were harvested, fixed and permeabilized, stained with a monoclonal antibody to the viral latent-to-lytic switch protein ZEBRA (Z EBV Replication Activator), and examined by flow cytometry. Cells were stained in parallel with an isotype-matched control antibody for placement of gates.

[7] = test system: EBV lytic cycle proteins ZEBRA and EA-D in EBV-positive HH514-16 Burkitt lymphoma cell line; experiment: Immunoblotting for ZEBRA and EA-D in HH514-16 cells induced with AZA; conditions: HH514-16, varying concentrations 2 hours before AZA for 24 hours, FIG. 2
Source text: (§2) Cells were harvested and subjected to immunoblotting with monoclonal antibodies to ZEBRA and EA-D (Early antigen-diffuse).

[8] = test system: EBV lytic cycle proteins ZEBRA and EA-D in EBV-positive Akata Burkitt lymphoma cell line; experiment: Immunoblotting for ZEBRA and EA-D in Akata cells induced with anti-IgG; conditions: varying concentrations 2 hours before anti-IgG for 24 hours, FIG. 3
Source text: as §2

[9] = HH514-16, varying concentrations 2 hours before sodium butyrate for 24 hours, FIG. 4
[10] = HH514-16, varying concentrations 2 hours before NaB for 24 or 48 hours, FIG. 1

Compound: C=CC(=O)N1CCC([C@@H]2CCNc3c(C(N)=O)c(-c4ccc(Oc5ccccc5)cc4)nn32)CC1 [Zanubrutinib]
- Percent ZEBRA positive cells ([1]; inhibitor conc. 1 μM): 0.65%
- Percent ZEBRA positive cells ([1]; inhibitor conc. 10 μM): 0.85%
- expression of ZEBRA (immunoblot) [2, 9]: significantly reduced
- Cleaved caspase 1 (immunoblot) [3]: significantly reduced
- expression of ZEBRA (immunoblot) [3]: significantly reduced

Compound: CC#CC(=O)N1CCC[C@H]1c1nc(-c2ccc(C(=O)Nc3ccccn3)cc2)c2c(N)nccn12 [Acalabrutinib]
- Percent ZEBRA positive cells ([1]; inhibitor conc. 1 μM): 1.15%
- Percent ZEBRA positive cells ([1]; inhibitor conc. 10 μM): 0.92%
- expression of ZEBRA (immunoblot) [2, 9]: significantly reduced
- Cleaved caspase 1 (immunoblot) [3]: significantly reduced
- expression of ZEBRA (immunoblot) [3]: significantly reduced

Compound: C=CC(=O)N1CCC[C@@H](n2nc(-c3ccc(Oc4ccccc4)cc3)c3c(N)ncnc32)C1 [Ibrutinib]
- levels of ZEBRA (flow cytometry, in words) ([4]; HH514-16, NaB 24 or 48 hours, varying concentrations): decreased
- Percent positive cells ZEBRA ([4]; HH514-16, Sodium Butyrate induction 24 h, ibrutinib 0.25 μM): 13%
- Percent positive cells ZEBRA ([4]; HH514-16, Sodium Butyrate induction 24 h, ibrutinib 0.5 μM): 9.5%
- Percent positive cells ZEBRA ([4]; HH514-16, Sodium Butyrate induction 24 h, ibrutinib 1 μM): 9.0%
- Percent positive cells ZEBRA ([4]; HH514-16, Sodium Butyrate induction 24 h, ibrutinib 2 μM): 8.6%
- Percent positive cells ZEBRA ([4]; HH514-16, Sodium Butyrate induction 24 h, ibrutinib 5 μM): 7.0%
- Percent positive cells ZEBRA ([4]; HH514-16, Sodium Butyrate induction 48 h, ibrutinib 0.25 μM): 38%
- Percent positive cells ZEBRA ([4]; HH514-16, Sodium Butyrate induction 48 h, ibrutinib 0.5 μM): 30%
- Percent positive cells ZEBRA ([4]; HH514-16, Sodium Butyrate induction 48 h, ibrutinib 1 μM): 23%
- Percent positive cells ZEBRA ([4]; HH514-16, Sodium Butyrate induction 48 h, ibrutinib 2 μM): 22%
- Percent positive cells ZEBRA ([4]; HH514-16, Sodium Butyrate induction 48 h, ibrutinib 5 μM): 18%
- levels of ZEBRA (flow cytometry, in words) ([5]; HH514-16, AZA 24 or 48 hours, varying concentrations): decreased
- Percent positive cells ZEBRA ([5]; HH514-16, AZA induction 24 h, ibrutinib 0.25 μM): 13%
- Percent positive cells ZEBRA ([5]; HH514-16, AZA induction 24 h, ibrutinib 0.5 μM): 11%
- Percent positive cells ZEBRA ([5]; HH514-16, AZA induction 24 h, ibrutinib 1 μM): 9.0%
- Percent positive cells ZEBRA ([5]; HH514-16, AZA induction 24 h, ibrutinib 2 μM): 10%
- Percent positive cells ZEBRA ([5]; HH514-16, AZA induction 24 h, ibrutinib 5 μM): 9.0%
- Percent positive cells ZEBRA ([5]; HH514-16, AZA induction 48 h, ibrutinib 0.25 μM): 13%
- Percent positive cells ZEBRA ([5]; HH514-16, AZA induction 48 h, ibrutinib 0.5 μM): 13%
- Percent positive cells ZEBRA ([5]; HH514-16, AZA induction 48 h, ibrutinib 1 μM): 15%
- Percent positive cells ZEBRA ([5]; HH514-16, AZA induction 48 h, ibrutinib 2 μM): 13%
- Percent positive cells ZEBRA ([5]; HH514-16, AZA induction 48 h, ibrutinib 5 μM): 14%
- Percent positive cells ZEBRA ([6]; ibrutinib 0.25 μM): 7%
- Percent positive cells ZEBRA ([6]; ibrutinib 0.5 μM): 7%
- Percent positive cells ZEBRA ([6]; ibrutinib 1 μM): 5.5%
- Percent positive cells ZEBRA ([6]; ibrutinib 2 μM): 5.7%
- Percent positive cells ZEBRA ([6]; ibrutinib 5 μM): 5.7%
- levels of ZEBRA (flow cytometry, in words) ([6]; rabbit-anti human IgG 24 hours, varying concentrations): decreased
- Percent ZEBRA positive cells ([1]; inhibitor conc. 0.5 μM): 0.52%
- Percent ZEBRA positive cells ([1]; inhibitor conc. 1 μM): 0.73%
- expression of EA-D (immunoblot) [2, 10]: significantly reduced
- expression of ZEBRA (immunoblot) [2, 10]: significantly reduced
- expression of ZEBRA (immunoblot) [2, 9]: significantly reduced
- expression of EA-D (immunoblot) [7]: significantly reduced
- expression of ZEBRA (immunoblot) [7]: significantly reduced
- expression of EA-D (immunoblot) [8]: significantly reduced
- expression of ZEBRA (immunoblot) [8]: significantly reduced
